From patent US8765721B2, “Composition comprising phosphatidyl serine and an antigen or allergen and the use thereof” (Vaccine Technology Limited, priority 2004, dated 2014)

Tests used:
Assay type in all cases: in vivo, rat
IgE [1] = test: Ovalbumin-specific IgE ELISA of serum of immunised rats; conditions: pooled group serum
Description: (§1) Rats were injected with vaccine compositions comprising the ovalbumin antigen with and without di-oleoyl phosphatidyl serine, lyso-oleoyl phosphatidyl serine or stearoyl(X1)-arachidonoyl(X2) phosphatidyl serine and the concentrations of IgE, IgA and IgG are compared.
(§2) The animals were acclimatised for a period of 5 days prior to dosing. During the acclimatisation period animals were observed twice daily during the working week and once on each day during the weekend to evaluate the health status of the animals. Rats were then allocated to the following dose groups using computer-generated random order numbers.
(§3) On day 0, 20 μg of ovalbumin (OA) in phosphate buffered saline (PBS) with alhydrogel (AHG) adjuvant in a final volume of 0.5 mL was administered.
(§4) On days 21 and 42, 20 μg of ovalbumin (OA) in phosphate buffered saline (PBS) with the relevant test compound in a final volume of 0.5 ml was administered.
(§5) In each case, 0.5 mL of inoculum was injected subcutaneously into the scruff of the neck.
(§6) […] A blood sample was also taken from each animal on Days 15, 22, 29, 36, 43, 50, 57 and 64.
(§7) Serum was prepared by centrifugation of the blood sample at 2,500 rpm for 10 minutes and frozen at −20° C. The samples were then analysed by ELISA to establish the concentration of IgE, IgA and IgG1, IgG2a and IgG2b.
(§8) The purpose of an ELISA is to determine whether a particular protein is present in a sample and then enables quantification of how much is present. By coating the bottom of wells with ovalbumin (OVA) it is possible to bind anti-OVA specific antibodies. To detect only anti-OVA IgA antibodies anti-rat IgA conjugated to HRP was used as a secondary antibody. Quantification of specific antibodies in the rat sera samples was performed using antibody titrations. The data was reported as endpoint titers. Endpoint titers are defined as the last serum dilution giving an optical density value equal to twice the background optical density for the ELISA plate (buffer).

IgA [2] = test: Ovalbumin-specific IgA ELISA of serum of immunised rats; conditions: Day 1; 50 ug with 20 μg Ova s.c. on days 21 and 42; pooled group serum
IgE [3] = test: Ovalbumin-specific IgE ELISA of serum of immunised rats; conditions: Day 1; 250 ug with 20 μg Ova s.c. on days 21 and 42; pooled group serum
IgG1 = test: Ovalbumin-specific IgG1 ELISA of serum of immunised rats; conditions: pooled group serum
Description: as §1, §2, §3, §4
(§9) In each case, 0.5 mL of inoculum was injected subcutaneously into the scruff of the neck. […]
as §7
The purpose of an ELISA is to determine whether a particular protein is present in a sample and then enables quantification of how much is present. By coating the bottom of wells with ovalbumin (OVA) it is possible to bind anti-OVA specific antibodies. […] Quantification of specific antibodies in the rat sera samples was performed using antibody titrations. The data was reported as endpoint titers. Endpoint titers are defined as the last serum dilution giving an optical density value equal to twice the background optical density for the ELISA plate (buffer).

IgG2b = test: Ovalbumin-specific IgG2b ELISA of serum of immunised rats; conditions: pooled group serum
Description: as §1, §2, §3, §4, §5, §6, §7, §8

IgA [4] = test: Ovalbumin-specific IgA ELISA of serum of immunised rats; conditions: pooled group serum
Description: as §1, §2, §3, §4, §5
On Day 0 a pre-inoculation blood sample was taken. A blood sample was also taken from each animal on Days 15, 22, 29, 36, 43, 50, 57 and 64.
as §7, §8

IgG2a = test: Ovalbumin-specific IgG2a ELISA of serum of immunised rats; conditions: pooled group serum
Description: as §1, §2, §3, §4, §9, §7, §8

[5] = Day 1, 50 ug with 20 μg Ova s.c. on days 21 and 42
[6] = Day 15, 50 ug with 20 μg Ova s.c. on days 21 and 42
[7] = Day 15, 250 ug with 20 μg Ova s.c. on days 21 and 42
[8] = Day 22, 50 ug with 20 μg Ova s.c. on days 21 and 42
[9] = Day 22, 250 ug with 20 μg Ova s.c. on days 21 and 42
[10] = Day 29, 50 ug with 20 μg Ova s.c. on days 21 and 42
[11] = Day 29, 250 ug with 20 μg Ova s.c. on days 21 and 42
[12] = Day 36, 50 ug with 20 μg Ova s.c. on days 21 and 42
[13] = Day 36, 250 ug with 20 μg Ova s.c. on days 21 and 42
[14] = Day 43, 50 ug with 20 μg Ova s.c. on days 21 and 42
[15] = Day 43, 250 ug with 20 μg Ova s.c. on days 21 and 42
[16] = Day 50, 50 ug with 20 μg Ova s.c. on days 21 and 42
[17] = Day 50, 250 ug with 20 μg Ova s.c. on days 21 and 42
[18] = Day 57, 50 ug with 20 μg Ova s.c. on days 21 and 42
[19] = Day 57, 250 ug with 20 μg Ova s.c. on days 21 and 42
[20] = Day 64, 50 ug with 20 μg Ova s.c. on days 21 and 42
[21] = Day 64, 250 ug with 20 μg Ova s.c. on days 21 and 42
[22] = Day 1, 250 ug with 20 μg Ova s.c. on days 21 and 42

With `CCCCC/C=C\C/C=C\C/C=C\C/C=C\CCCC(=O)O[C@H](COC(=O)CCCCCCCCCCCCCCCCC)COP(=O)(O)OC[C@H](N)C(=O)O` [VT003, Stearoyl arachadonoyl phosphatidyl serine] the IgE endpoint titer (IgE [1]; [5]) was 0, the IgE endpoint titer (IgE [1]; [6]) was 0 and the IgE endpoint titer (IgE [1]; [7]) was 0. It also gave an IgE endpoint titer (IgE [1]; [8]) of 0, an IgE endpoint titer (IgE [1]; [9]) of 0 and an IgE endpoint titer (IgE [1]; [10]) of 0. For the same compound, the IgE endpoint titer (IgE [1]; [11]) was 0, the IgE endpoint titer (IgE [1]; [12]) was 0 and the IgE endpoint titer (IgE [1]; [13]) was 0. For the same compound, the IgE endpoint titer (IgE [1]; [14]) was 0, the IgE endpoint titer (IgE [1]; [15]) was 0 and the IgE endpoint titer (IgE [1]; [16]) was 320. The IgE endpoint titer (IgE [1]; [17]) was 80, the IgE endpoint titer (IgE [1]; [18]) was 80 and the IgE endpoint titer (IgE [1]; [19]) was 40. It also gave an IgE endpoint titer (IgE [1]; [20]) of 40, an IgE endpoint titer (IgE [1]; [21]) of 20 and an IgA endpoint titer (IgA [2]) of 0. For the same compound, the IgE endpoint titer (IgE [3]) was 0, the IgG1 endpoint titer (IgG1; [5]) was 0 and the IgG1 endpoint titer (IgG1; [22]) was 0. It also gave an IgG1 endpoint titer (IgG1; [6]) of 320, an IgG1 endpoint titer (IgG1; [7]) of 320 and an IgG1 endpoint titer (IgG1; [8]) of 2560. It also gave an IgG1 endpoint titer (IgG1; [9]) of 2560, an IgG1 endpoint titer (IgG1; [10]) of 20480 and an IgG1 endpoint titer (IgG1; [11]) of 20480. For the same compound, the IgG1 endpoint titer (IgG1; [12]) was 20480, the IgG1 endpoint titer (IgG1; [13]) was 20480 and the IgG1 endpoint titer (IgG1; [14]) was 20480. The IgG1 endpoint titer (IgG1; [15]) was 10240, the IgG1 endpoint titer (IgG1; [16]) was 20480 and the IgG1 endpoint titer (IgG1; [17]) was 10240. For the same compound, the IgG1 endpoint titer (IgG1; [18]) was 10240, the IgG1 endpoint titer (IgG1; [19]) was 10240 and the IgG1 endpoint titer (IgG1; [20]) was 40960. The IgG1 endpoint titer (IgG1; [21]) was 20480, the IgG2b endpoint titer (IgG2b; [5]) was 0 and the IgG2b endpoint titer (IgG2b; [22]) was 0. It also gave an IgG2b endpoint titer (IgG2b; [6]) of 40, an IgG2b endpoint titer (IgG2b; [7]) of 40 and an IgG2b endpoint titer (IgG2b; [8]) of 320. The IgG2b endpoint titer (IgG2b; [9]) was 80, the IgG2b endpoint titer (IgG2b; [10]) was 40 and the IgG2b endpoint titer (IgG2b; [11]) was 80. It also gave an IgG2b endpoint titer (IgG2b; [12]) of 640, an IgG2b endpoint titer (IgG2b; [13]) of 640 and an IgG2b endpoint titer (IgG2b; [14]) of 320. The IgG2b endpoint titer (IgG2b; [15]) was 1280, the IgG2b endpoint titer (IgG2b; [16]) was 160 and the IgG2b endpoint titer (IgG2b; [17]) was 320. The IgG2b endpoint titer (IgG2b; [18]) was 640, the IgG2b endpoint titer (IgG2b; [19]) was 1280 and the IgG2b endpoint titer (IgG2b; [20]) was 640. For the same compound, the IgG2b endpoint titer (IgG2b; [21]) was 1280, the IgA endpoint titer (IgA [4]; [22]) was 0 and the IgA endpoint titer (IgA [4]; [6]) was 0. It also gave an IgA endpoint titer (IgA [4]; [7]) of 0, an IgA endpoint titer (IgA [4]; [8]) of 0 and an IgA endpoint titer (IgA [4]; [9]) of 0. For the same compound, the IgA endpoint titer (IgA [4]; [10]) was 40, the IgA endpoint titer (IgA [4]; [11]) was 40 and the IgA endpoint titer (IgA [4]; [12]) was 640. For the same compound, the IgA endpoint titer (IgA [4]; [13]) was 160, the IgA endpoint titer (IgA [4]; [14]) was 640 and the IgA endpoint titer (IgA [4]; [15]) was 320. It also gave an IgA endpoint titer (IgA [4]; [16]) of 1280, an IgA endpoint titer (IgA [4]; [17]) of 640 and an IgA endpoint titer (IgA [4]; [18]) of 640. For the same compound, the IgA endpoint titer (IgA [4]; [19]) was 640, the IgA endpoint titer (IgA [4]; [20]) was 640 and the IgA endpoint titer (IgA [4]; [21]) was 1280. The IgG2a endpoint titer (IgG2a; [5]) was 0, the IgG2a endpoint titer (IgG2a; [22]) was 0 and the IgG2a endpoint titer (IgG2a; [6]) was 40. The IgG2a endpoint titer (IgG2a; [7]) was 40, the IgG2a endpoint titer (IgG2a; [8]) was 1280 and the IgG2a endpoint titer (IgG2a; [9]) was 1280. For the same compound, the IgG2a endpoint titer (IgG2a; [10]) was 2560, the IgG2a endpoint titer (IgG2a; [11]) was 2560 and the IgG2a endpoint titer (IgG2a; [12]) was 10240. The IgG2a endpoint titer (IgG2a; [13]) was 5120, the IgG2a endpoint titer (IgG2a; [14]) was 10240 and the IgG2a endpoint titer (IgG2a; [15]) was 5120. The IgG2a endpoint titer (IgG2a; [16]) was 20480, the IgG2a endpoint titer (IgG2a; [17]) was 20480 and the IgG2a endpoint titer (IgG2a; [18]) was 10240. For the same compound, the IgG2a endpoint titer (IgG2a; [19]) was 10240, the IgG2a endpoint titer (IgG2a; [20]) was 20480 and the IgG2a endpoint titer (IgG2a; [21]) was 20480.
